Reference: PubChem BioAssay (NCI)
Several values for one entry are separate records, joined by “and”; a condition that tells them apart may be missing. Equal values may be shown once.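 Following 48 hours of exposure in 96-well plates, responses at five concentrations were used to interpolate endpoints linearly. Here, GI50 denotes the concentration required for 50% inhibition of growth. TGI: concentration producing complete growth inhibition.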 Activity calls are given as the source filed them. Cut-off read from the data, not from the text of the source: active = GI50 below about 0.43 µM; inactive = the rest. Where a SMILES comes first, the peptide text is derived from it. [ ]: non-standard residue; d: D form. The star is where a group is joined. ξ: configuration not given here. NMeN = CN[C@@H](CC(N)=O)C(=O)O; NMeV = CN[C@H](C(=O)O)C(C)C; ξNMeV = CNC(C(=O)O)C(C)C; Boc = CC(C)(C)OC(=O)*; ξNMeA = CNC(C)C(=O)O

How the values were obtained:
Assay in all cases: inhibition of tumour cell growth, NCI panel, 48 h
DMS 114 small cell lung = system: DMS 114 small cell lung
KM20L2 colon = system: KM20L2 colon
SW-620 colon = system: SW-620 colon
DMS 273 small cell lung = system: DMS 273 small cell lung
MCF7 breast = system: MCF7 breast
T-47D breast = system: T-47D breast
MDA-MB-231 breast = system: MDA-MB-231 breast
NCI/ADR-RES ovarian = system: NCI/ADR-RES ovarian
BT-549 breast = system: BT-549 breast

Row | Structure (SMILES) | TGI (DMS 114 small cell lung) | TGI (KM20L2 colon) | TGI (SW-620 colon) | TGI (DMS 273 small cell lung) | other results
1 | CC[O-].CC[O-].O=C1C(c2ccccc2)=C([O-])c2ccccc21.O=C1C(c2ccccc2)=C([O-])c2ccccc21.[Ti+4] | > 100 µM | > 100 µM | > 100 µM | > 100 µM | GI50 (DMS 114 small cell lung): > 100 µM; GI50 (KM20L2 colon): > 100 µM; GI50 (SW-620 colon): > 100 µM; GI50 (DMS 273 small cell lung): > 100 µM
2 | COC(=O)C(C)N(C)C(=O)[C@H](CC(N)=O)N(C)C(=O)[C@@H]1CCCN1C(=O)[C@H](C(C)C)N(C)C(=O)C(C(C)C)N(C)C(=O)[C@@H](NC(=O)OC(C)(C)C)C(C)C (some centres undefined) (Boc-V[ξNMeV][NMeV]P[NMeN][ξNMeA]-OMe) |  | > 100 µM | > 50 µM and 26.7 µM | > 100 µM | TGI (MCF7 breast): > 50 µM; TGI (T-47D breast): > 50 µM; GI50 (SW-620 colon): 12.7 µM; TGI (MDA-MB-231 breast): > 50 µM; TGI (NCI/ADR-RES ovarian): > 50 µM; TGI (BT-549 breast): > 50 µM
3 | CCC[CH2][Sn]([CH2]CCC)([O]C(=O)C(N)CSC)[O]C(=O)C(N)CSC (centres undefined) | 12.8 µM | 53.4 µM | 23 µM |  | GI50 (DMS 114 small cell lung): 2.72 µM; GI50 (KM20L2 colon): 18.6 µM; GI50 (SW-620 colon): 6.08 µM
4 | O=c1ccnc2c1ccc1[nH]cccc12 | > 100 µM | > 100 µM | > 100 µM | > 100 µM | 
5 | Cc1nc2cc(N)c(F)cc2[nH]1 | > 100 µM |  | > 100 µM | > 100 µM | 
6 | O=C([CH-]C(=O)c1ccccc1)c1ccccc1.O=C([CH-]C(=O)c1ccccc1)c1ccccc1.O=C([CH-]C(=O)c1ccccc1)c1ccccc1.[OH3+].[Y+3] |  |  | 22.8 µM |  | GI50 (KM20L2 colon): 5.92 µM; GI50 (SW-620 colon): 5.14 µM
7 | Cc1ccc(/C=C/C(=O)c2sc(-c3cccnc3)nc2C)cc1 |  | > 100 µM | > 100 µM | > 100 µM | 
8 | NC(=S)N/N=C(\C(=O)Nc1cccc([N+](=O)[O-])c1)c1nc2ccc([N+](=O)[O-])cc2[nH]c1=O | > 100 µM | > 100 µM | > 100 µM | > 100 µM | 
9 | COC(=O)C12CC3CC(C1)CC(C(=O)OC)(C3)C2 | > 100 µM | > 100 µM | > 100 µM | > 100 µM | 
10 | O=C1c2ccccc2C2(O)NC(=S)N(c3ccccc3)C12O (centres undefined) | > 100 µM | > 100 µM | > 100 µM |  | 
11 | Nc1ncn(C2C=C(CO)C(O)C2O)c(=O)n1 (centres undefined) |  | > 100 µM | > 100 µM | > 100 µM | 
12 | COc1cc(C(=O)C/C(CCC(=O)Nc2ccc(Cl)cc2C)=N/NC(=O)C(N)=O)ccc1O | > 100 µM | > 100 µM | > 100 µM | > 100 µM | 
13 | C[C@]12CC[C@H](OCCC#N)CC1=CC[C@@H]1C2CC[C@]2(C)/C(=N/OCCC#N)CCC12 (some centres undefined) | > 100 µM | > 100 µM | > 100 µM | > 100 µM | 
14 | CC(=O)Nc1c(C)ccc2c1C(=O)c1ccccc1C2=O | > 100 µM |  | > 100 µM | > 100 µM | 
15 | CCCCCCCCCCC(O)C1CCC(C(O)CCC(O)C2CCC(CCCCCCC[C@H](O)CC3=C[C@@H](C)OC3=O)O2)O1 (some centres undefined) |  | > 100 µM | > 100 µM | > 100 µM | GI50 (SW-620 colon): 9.3 µM; TGI (NCI/ADR-RES ovarian): 8.23 µM; TGI (BT-549 breast): 2.26 µM
16 | CN(C)CC/C(=N\Nc1ccccc1)c1ccccc1 | > 100 µM |  |  |  | 
17 | CCc1nc(N)nc(C(=O)NCCNC(=O)c2nc(N)nc(CC)c2C)c1C | > 100 µM | > 100 µM | > 100 µM | > 100 µM | 
18 | CSc1nc(NC(=O)O)c(N(C(C)=O)C(=O)O)c(=O)n1C | > 100 µM | > 100 µM | > 100 µM | > 100 µM | 
19 | CCn1c(O)c(C=N)c(=O)n(CC)c1=O | > 100 µM | > 100 µM | > 100 µM | > 100 µM | 

Row | Structure (SMILES) | TGI (DMS 114 small cell lung) | TGI (KM20L2 colon) | TGI (SW-620 colon) | TGI (DMS 273 small cell lung) | other results
20 | O=C1NC2CCC(C2)C1c1ccccc1 (centres undefined) | > 100 µM |  | > 100 µM | > 100 µM | 
21 | O=C(Nc1ccc(F)cc1)C(=O)C(C1OC(=O)c2ccccc21)[N+](=O)[O-] (centres undefined) | > 100 µM | > 100 µM | > 100 µM |  | 
22 | COC1OC(C)C(O)CC1OS(=O)(=O)c1ccc(C)cc1 (centres undefined) | > 100 µM | > 100 µM | > 100 µM | > 100 µM | 
23 | CC(=O)N/C(=C\c1cccc([N+](=O)[O-])c1)c1nc2c3c(ccc2[nH]1)C(=O)c1ccccc1C3=O | > 100 µM | > 100 µM | > 100 µM |  | 
24 | COC(=O)C12C3C4C5C3(C#N)C1C5(C(=O)OC)C42C(=O)N(C(C)C)C(C)C (centres undefined) | > 100 µM | > 100 µM | > 65.3 µM | > 59.3 µM | 
25 | COC(=O)C(=O)C(C#N)c1ccc(CC#N)cc1 (centres undefined) |  | > 100 µM | > 100 µM | > 100 µM | 
26 | CC/C(=C(/CC)c1ccc(O)cc1)c1ccc([O-])cc1.CC/C(=C(/CC)c1ccc(O)cc1)c1ccc([O-])cc1.O=C([CH-]C(=O)c1ccccc1)c1ccccc1.O=C([CH-]C(=O)c1ccccc1)c1ccccc1.[Ti+4] |  | 41.3 µM | 19.1 µM | > 100 µM | GI50 (KM20L2 colon): 19.3 µM; GI50 (SW-620 colon): 6.35 µM; GI50 (DMS 273 small cell lung): 16.3 µM
27 | Cc1cc(C)nc(NS(=O)(=O)c2ccc(Nc3c4ccc(Cl)cc4nc4c(C(=O)Nc5ccc(S(=O)(=O)N=C(N)N)cc5)cccc34)cc2)n1 | > 100 µM | > 100 µM |  |  | 
28 | O=c1[nH]c2c3ccccc3ccc2c2cc3c(cc12)OCO3 |  | > 100 µM | > 100 µM | > 100 µM | 
29 | O=C(O)CC12C3C4C5C3C1C5C42 (centres undefined) | > 100 µM | > 100 µM | > 100 µM | > 100 µM | 
30 | CCCCc1ccc(-n2c3nc(=O)n(C)c(=O)c-3nc3ccccc32)cc1 | 18.5 µM | 14.4 µM | 19.8 µM | 26.4 µM | 
31 | Cc1ccc(NC(=O)CCC/C(CC(=O)c2ccc(Br)cc2)=N/NC(=O)CC#N)cc1 | > 100 µM | > 100 µM | > 100 µM |  | 
32 | C1CCN(C2OC3C(COC3N3CCCCC3)OC2OC2CCO[C@@H]2N2CCCCC2)CC1 (some centres undefined) | 54.7 µM | > 100 µM | > 100 µM | > 100 µM | 
33 | CC(C)C1CCC/C=C/C=C/C=C/C=C/C(OC2OC(C)C(O)C(N)C2O)CC2OC(O)(CC(O)CC(O)C(O)CCC(=O)O1)CC(O)C2C(=O)O (centres undefined) | > 52.5 µM | > 52.5 µM | > 52.5 µM |  | 
34 | C=C1C(=O)[C@@]23CC1C(O)[C@@H](OC(C)=O)[C@@H]2C1(C)C(OC(C)=O)C[C@@H](OC(C)=O)C(C)(C)[C@@H]1C[C@H]3OC(C)=O (some centres undefined) | 4.6 µg/mL |  | 3.33 µM and 4.57 µg/mL |  | GI50 (MCF7 breast): 6.33 µg/mL; TGI (MCF7 breast): 6.7 µM and 19.1 µg/mL; GI50 (DMS 114 small cell lung): 2.08 µg/mL; outcome (KM20L2 colon): inactive; GI50 (T-47D breast): 2.14 µg/mL; TGI (T-47D breast): 4.55 µM and 4.57 µg/mL; GI50 (SW-620 colon): 1.7 µM and 1.85 µg/mL; GI50 (MDA-MB-231 breast): 2.38 µg/mL; TGI (MDA-MB-231 breast): 7.49 µg/mL; GI50 (NCI/ADR-RES ovarian): 16.9 µg/mL; TGI (NCI/ADR-RES ovarian): > 10 µM and 37.2 µg/mL; GI50 (BT-549 breast): 1.87 µg/mL; TGI (BT-549 breast): 3.04 µM and 3.31 µg/mL
35 | COc1ccc2cc3[n+](cc2c1OC)CCc1cc(O)c(O)cc1-3 | > 100 µM | > 100 µM | > 100 µM | > 100 µM | 
36 | COc1ccc(CNc2c3ccccc3nc3ccc(OC)cc23)cc1 |  |  | 7.22 µM |  | GI50 (MCF7 breast): 2.11 µM; TGI (MCF7 breast): 5.71 µM; GI50 (T-47D breast): 3.54 µM; TGI (T-47D breast): 18.9 µM; GI50 (SW-620 colon): 2.08 µM; GI50 (MDA-MB-231 breast): 1.9 µM; TGI (MDA-MB-231 breast): 4.69 µM; GI50 (NCI/ADR-RES ovarian): 2.22 µM; TGI (NCI/ADR-RES ovarian): 7.52 µM; GI50 (BT-549 breast): 4.25 µM; TGI (BT-549 breast): 15.8 µM
37 | CCOC(=O)C1=C(Nc2ccc(Cl)cc2Cl)OC/C1=N\NS(=O)(=O)c1ccc(C)cc1 | > 100 µM | > 100 µM | > 100 µM | > 100 µM | 
